Measured values taken from patent US10287298B2, “Nitrogen-containing analogs of salinomycin, synthesis and use against cancer stem cells and malaria” (Centre National de la Recherche Scientifique (CNRS), priority 2014, dated 2019).
Read-outs that look alike come from different tables or passages of the source.

How the values were obtained:
[1] = system: HMLER CD24− cells; experiment: Cell viability assay (CellTiter-Blue), IC50 assessment; assay type: cell-based, Human; settings: for IC50: Homo sapiens, read-out: IC50 CD24−; for activity against CD24 cells compared with salinomycine: comparison of the IC50 results
Protocol: (§1) FIG. 1 represents viability of HMLER CD24− cells (full line) and HMLER CD24+ cells (dotted line) at different concentration of salinomycine (1A), AM5 […] or AM13 (1D).
(§2) Cell viability assay was carried out by plating 1000 cells per well in 96-well plates. NAC (2 mM, A9165 Sigma) or DFO (1 mM) were pretreated 2 hours prior to the compound treatment. CellTiter-Blue® Reagent (Promega; G3582) (20 μl/well) was added after 24, 48, or 72 hours treatment and cells were incubated for 1 hour before recording fluorescence (560(20)Ex/590(10)Em) using a Perkin Elmer Wallac 1420 Victor2 Microplate Reader.

[2] = system: HMLER CD24+ cells; experiment: as above; assay type: cell-based; settings: Homo sapiens, read-out: IC50 CD24+
Protocol: as §1, §2

[3] = system: HMLER CD24− cells; experiment: Cell proliferation and formation of mammospheres; assay type: cell-based, Human
Source text: FIG. 2 is a representative phase contrast photomicrographs of mammospheres formed after 11 days in the absence of any added compound (Control) or in the presence of a defined amount of salinomycine, AM5, AM9 or AM13. […] The size of the mammospheres is correlated with progenitor cell proliferation, whereas the number of mammospheres formed after serial passages at clonal density is correlated with the self-renewal capacity of primitive Cancer Stem Cells. […]
FIG. 9 represents images of the third generation of mammospheres formed from individual HMLER CD24low cells treated during 7 days with the indicated drug. The size of the mammospheres is correlated with progenitor cell proliferation capacity, whereas the number of mammospheres formed after serial passages at clonal density is correlated with the self-renewal capacity of primitive Cancer Stem Cells.
AM5, AM9, AM13 and salinomycine were assessed for their capability to inhibit cell proliferation and formation of mammospheres. […]
AM5 and AM23 and salinomycine were assessed for their capability to inhibit cell proliferation and formation of mammospheres.

[4] = HMLER CD24− cells, cell viability
[5] = HMLER CD24+ cells, cell viability

Work on `CCC(C(=O)O)[C@H]1CC[C@H](C)C([C@@H](C)[C@H](O)[C@H](C)C(=O)[C@H](CC)[C@H]2O[C@]3(C=CC(=O)[C@]4(CC[C@@](C)([C@H]5CC[C@](O)(CC)[C@H](C)O5)O4)O3)[C@H](C)C[C@@H]2C)O1` (stereo partly drawn) [AM6] yielded an IC50 [1] of 6180 nM and an IC50 [2] of 12.8 µM.

In the case of `CCC(C(=O)O)[C@H]1CC[C@H](C)C([C@@H](C)[C@H](O)[C@H](C)C(=O)[C@H](CC)[C@H]2O[C@]3(C=C[C@@H](NCc4ccccc4)[C@]4(CC[C@@](C)([C@H]5CC[C@](O)(CC)[C@H](C)O5)O4)O3)[C@H](C)C[C@@H]2C)O1` (stereo partly drawn) [AM11], the IC50 [1, 4] is reported as 800 nM, the “activity against CD24 cells compared with salinomycine” value (shortened to “activity … compared with salinomycine”) [1] is reported as “significantly improved activity” and the IC50 [2, 5] is reported as 6.7 µM.

In the case of `CCC(C(=O)O)[C@H]1CC[C@H](C)C([C@@H](C)[C@H](O)[C@H](C)C(=O)[C@H](CC)[C@H]2O[C@]3(C=C[C@@H](NC4CCC4)[C@]4(CC[C@@](C)([C@H]5CC[C@](O)(CC)[C@H](C)O5)O4)O3)[C@H](C)C[C@@H]2C)O1` (stereo partly drawn) [AM24], the IC50 [1, 4] is reported as 107 nM and the IC50 [2, 5] is reported as 1.4 µM.

For `C#CCN[C@@H]1C=C[C@]2(O[C@H]([C@@H](CC)C(=O)[C@@H](C)[C@@H](O)[C@H](C)C3O[C@@H](C(CC)C(=O)OCC#C)CC[C@@H]3C)[C@@H](C)C[C@H]2C)O[C@@]12CC[C@@](C)([C@H]1CC[C@](O)(CC)[C@H](C)O1)O2` (stereo partly drawn) [AM10], the IC50 [1, 4] was 10000 nM, the “activity … compared with salinomycine” value [1] was “lower efficiency than salinomycine” and the IC50 [2, 5] was 19.7 µM.

With `CCCN[C@@H]1C=C[C@]2(O[C@H]([C@@H](CC)C(=O)[C@@H](C)[C@@H](O)[C@H](C)C3O[C@@H](C(CC)C(=O)O)CC[C@@H]3C)[C@@H](C)C[C@H]2C)O[C@@]12CC[C@@](C)([C@H]1CC[C@](O)(CC)[C@H](C)O1)O2` (stereo partly drawn) [AM21] the IC50 [1, 4] was 340 nM and the IC50 [2, 5] was 6.5 µM.

Compound `C#CCN[C@H]1C=C[C@]2(O[C@H]([C@@H](CC)C(=O)[C@@H](C)[C@@H](O)[C@H](C)C3O[C@@H](C(CC)C(=O)O)CC[C@@H]3C)[C@@H](C)C[C@H]2C)O[C@@]12CC[C@@](C)([C@H]1CC[C@](O)(CC)[C@H](C)O1)O2` (stereo partly drawn) [AM17] has an IC50 [1, 4] of 100 nM and an IC50 [2, 5] of 2 µM.

In the case of `CCC(C(=O)O)[C@H]1CC[C@H](C)C([C@@H](C)[C@H](O)[C@H](C)C(=O)[C@H](CC)[C@H]2O[C@]3(C=C[C@@H](NOCc4ccccc4)[C@]4(CC[C@@](C)([C@H]5CC[C@](O)(CC)[C@H](C)O5)O4)O3)[C@H](C)C[C@@H]2C)O1` (stereo partly drawn) [AM8], the IC50 [1, 4] is reported as 1020 nM, the “activity … compared with salinomycine” value [1] is reported as “significantly improved activity” and the IC50 [2, 5] is reported as 8.06 µM.

For `CCCCCCN[C@@H]1C=C[C@]2(O[C@H]([C@@H](CC)C(=O)[C@@H](C)[C@@H](O)[C@H](C)C3O[C@@H](C(CC)C(=O)O)CC[C@@H]3C)[C@@H](C)C[C@H]2C)O[C@@]12CC[C@@](C)([C@H]1CC[C@](O)(CC)[C@H](C)O1)O2` (stereo partly drawn) [AM12], the IC50 [1, 4] was 1790 nM, the “activity … compared with salinomycine” value [1] was “significantly improved activity” and the IC50 [2, 5] was 6.92 µM.

`CCC(C(=O)NO)[C@H]1CC[C@H](C)C([C@@H](C)[C@H](O)[C@H](C)C(=O)[C@H](CC)[C@H]2O[C@]3(C=C/C(=N\O)[C@]4(CC[C@@](C)([C@H]5CC[C@](O)(CC)[C@H](C)O5)O4)O3)[C@H](C)C[C@@H]2C)O1` (stereo partly drawn) [AM18] was tested, and the IC50 [1, 4] was 100 nM and the IC50 [2, 5] was 2.5 µM.

For `CC(=O)O[C@H]1C(=O)[C@@]2(C)[C@H]([C@H](OC(=O)c3ccccc3)[C@]3(O)C[C@H](OC(=O)[C@H](O)[C@@H](NC(=O)c4ccccc4)c4ccccc4)C(C)=C1C3(C)C)[C@]1(OC(C)=O)CO[C@@H]1C[C@@H]2O` [paclitaxel, reference compound], the “effect against tumorsphere formation / CSC maintenance” value [3] was “poorly effective”.

In the case of `C#CCN[C@@H]1C=C[C@]2(O[C@H]([C@@H](CC)C(=O)[C@@H](C)[C@@H](O)[C@H](C)C3O[C@@H](C(CC)C(=O)OC)CC[C@@H]3C)[C@@H](C)C[C@H]2C)O[C@@]12CC[C@@](C)([C@H]1CC[C@](O)(CC)[C@H](C)O1)O2` (stereo partly drawn) [AM9, Me-Sal-propargylamine], the “effect against tumorsphere formation / CSC maintenance” value [3] is reported as “ineffective”, the “inhibition of cell proliferation” value ([3]; at 500 nM) is reported as “did not inhibit cell proliferation” and the IC50 [1, 4] is reported as 11800 nM. The “activity … compared with salinomycine” value [1] was “lower efficiency than salinomycine” and the IC50 [2, 5] was 22 µM.

With `CCC(C(=O)O)[C@H]1CC[C@H](C)C([C@@H](C)[C@H](O)[C@H](C)C(=O)[C@H](CC)[C@H]2O[C@]3(C=C[C@@H](NC4CCCC4)[C@]4(CC[C@@](C)([C@H]5CC[C@](O)(CC)[C@H](C)O5)O4)O3)[C@H](C)C[C@@H]2C)O1` (stereo partly drawn) [AM25] the IC50 [1, 4] was 108 nM and the IC50 [2, 5] was 1.36 µM.

`C=CCN[C@@H]1C=C[C@]2(O[C@H]([C@@H](CC)C(=O)[C@@H](C)[C@@H](O)[C@H](C)C3O[C@@H](C(CC)C(=O)O)CC[C@@H]3C)[C@@H](C)C[C@H]2C)O[C@@]12CC[C@@](C)([C@H]1CC[C@](O)(CC)[C@H](C)O1)O2` (stereo partly drawn) [AM22] gave an IC50 [1, 4] of 300 nM and an IC50 [2, 5] of 1.53 µM.

With `C#CCCCN[C@@H]1C=C[C@]2(O[C@H]([C@@H](CC)C(=O)[C@@H](C)[C@@H](O)[C@H](C)C3O[C@@H](C(CC)C(=O)O)CC[C@@H]3C)[C@@H](C)C[C@H]2C)O[C@@]12CC[C@@](C)([C@H]1CC[C@](O)(CC)[C@H](C)O1)O2` (stereo partly drawn) [AM16] the IC50 [1, 4] was 300 nM and the IC50 [2, 5] was 1.17 µM.

Work on `CCC(C(=O)OC)[C@H]1CC[C@H](C)C([C@@H](C)[C@H](O)[C@H](C)C(=O)[C@H](CC)[C@H]2O[C@]3(C=C[C@@H](OC(C)=O)[C@]4(CC[C@@](C)([C@H]5CC[C@](O)(CC)[C@H](C)O5)O4)O3)[C@H](C)C[C@@H]2C)O1` (stereo partly drawn) [AM7] yielded an IC50 [1, 4] of 7250 nM and an IC50 [2, 5] of 12.5 µM.

`CCC(C(=O)O)[C@H]1CC[C@H](C)C([C@@H](C)[C@H](O)[C@H](C)C(=O)[C@H](CC)[C@H]2O[C@]3(CC[C@@H](NCC(C)C)[C@]4(CC[C@@](C)([C@H]5CC[C@](O)(CC)[C@H](C)O5)O4)O3)[C@H](C)C[C@@H]2C)O1` (stereo partly drawn) [AM26] showed an IC50 [1, 4] of 1150 nM and an IC50 [2, 5] of 10.1 µM.

With `CCCCCCCCCCCCN[C@@H]1C=C[C@]2(O[C@H]([C@@H](CC)C(=O)[C@@H](C)[C@@H](O)[C@H](C)C3O[C@@H](C(CC)C(=O)O)CC[C@@H]3C)[C@@H](C)C[C@H]2C)O[C@@]12CC[C@@](C)([C@H]1CC[C@](O)(CC)[C@H](C)O1)O2` (stereo partly drawn) [AM13, Sal-Dodecylamine] the “inhibition of cell proliferation, efficacy in comparison with salinomycine” value ([3]; at 30 nM) was “ten-fold improved efficacy”, the “number and size of mammosphere” value ([3]; mammospheres after 11 days, low nanomolar concentrations) was “reduced the number and the size of mammosphere” and the IC50 [1, 4] was 72.7 nM. The “activity … compared with salinomycine” value [1] was “significantly improved activity” and the IC50 [2, 5] was 3.19 µM.

Compound `CCC(C(=O)NO)[C@H]1CC[C@H](C)C([C@@H](C)[C@H](O)[C@H](C)C(=O)[C@H](CC)[C@H]2O[C@]3(C=C[C@@H](NC4CC4)[C@]4(CC[C@@](C)([C@H]5CC[C@](O)(CC)[C@H](C)O5)O4)O3)[C@H](C)C[C@@H]2C)O1` (stereo partly drawn) [AM28] has an IC50 [1, 4] of 6430 nM and an IC50 [2, 5] of 5.83 µM.
